The values below come from patent US9510598B2, “Nitrogen-containing heterocyclic compounds for plant disease control” (BAYER CROPSCIENCE AG, priority 2012, dated 2016).

System in the first data set: not given
Test: not given
The data set is classed as physicochemical. As to conditions: HPLC on reversed phase columns, method [a]: pH 2.7, 0.1% formic acid in water and acetonitrile, linear gradient 10% to 95% acetonitrile.
`C#Cc1cnc2ccc(C3=NOC(C)(C(=O)NCC4(C)CCC4)C3)cc2c1` (centres unmarked) [compound 753]: the “log P” value is 3.27[a].
Same read-out and setting: the same measure for `CC1(C(=O)NCC2CC(F)(F)C2)CC(c2ccc3ncc(Br)cc3c2)=NO1` (centres unmarked) [compound 754]: 2.98[a].
As to `CC1(C(=O)NC2CC(F)(F)C2)CC(c2ccc3ncc(Br)cc3c2)=NO1` (centres unmarked) [compound 755], the “log P” value was 2.86[a].
Regarding `C#Cc1cnc2ccc(C3=NOC(C)(C(=O)NCC4CS(=O)(=O)CCO4)C3)cc2c1` (centres unmarked) [compound 756], the “log P” value was 1.93[a].
Still for that read-out and setting: the same measure for `CC1(CNC(=O)C2(C)CC(c3ccc4ncc(Br)cc4c3)=NO2)CCC1` (centres unmarked) [compound 757]: 3.65[a]; for `C#Cc1cnc2ccc(C3=NOC(C)(C(=O)NCc4ccnc(O)c4)C3)cc2c1` (centres unmarked) [compound 758]: 1.54[a]; for `CCC(C)Oc1cc(CNC(=O)C2(C)CC(c3ccc4ncc(Br)cc4c3)=NO2)ccn1` (centres unmarked) [compound 759]: 3.48[a].
The same measure, in the same setting: the same measure for `C#Cc1cnc2ccc(C3=NOC(C)(C(=O)NCc4ccnc(OC(C)CC)c4)C3)cc2c1` (centres unmarked) [compound 760]: 3.06[a].
Same read-out and setting: the same measure for `CC1(C(=O)NCc2ccnc(NC3CC3)c2)CC(c2ccc3ncc(Br)cc3c2)=NO1` (centres unmarked) [compound 761]: 1.58[a]; for `C#Cc1cnc2ccc(C3=NOC(C)(C(=O)NCc4ccnc(C(F)(F)F)c4)C3)cc2c1` (centres unmarked) [compound 762]: 2.64[a].
Regarding `CC(C)Oc1cc(CNC(=O)C2(C)CC(c3ccc4ncc(Br)cc4c3)=NO2)ccn1` (centres unmarked) [compound 763], the “log P” value was 3.09[a].
On the same count and under the same terms, the same measure for `C#Cc1cnc2ccc(C3=NOC(C)(C(=O)NCc4ccnc(OC(C)C)c4)C3)cc2c1` (centres unmarked) [compound 764]: 2.71[a].
Turning to `CC1(C(=O)NCc2ccnc(O)c2)CC(c2ccc3ncc(Br)cc3c2)=NO1` (centres unmarked) [compound 765], the “log P” value is 1.72[a].
Still for that read-out and setting: the same measure for `C#Cc1cnc2ccc(C3=NOC(C)(C(=O)NCCc4ccc(C(F)(F)F)cc4Cl)C3)cc2c1` (centres unmarked) [compound 766]: 3.76[a]; for `CC(NNC(=O)C1(C)CC(c2ccc3ncc(Br)cc3c2)=NO1)C1CC1` (centres unmarked) [compound 767]: 2.51[a].
On the same count and under the same terms, the same measure for `C#Cc1cnc2ccc(C3=NOC(C)(C(=O)NC(C4CC4)C4CC4)C3)cc2c1` (centres unmarked) [compound 768]: 3.21[a].
Regarding `CC1(C(=O)NCCc2ccc(C(F)(F)F)cc2Cl)CC(c2ccc3ncc(Br)cc3c2)=NO1` (centres unmarked) [compound 769], the “log P” value was 4.21[a].
Same read-out and setting: the same measure for `C#Cc1cnc2ccc(C3=NOC(C)(C(=O)NNC(C)C4CC4)C3)cc2c1` (centres unmarked) [compound 770]: 2.21[a]; for `CC1(C(=O)N2CCOCC2)CC(c2ccc3ncc(Br)cc3c2)=NO1` (centres unmarked) [compound 771]: 2.48[a]; for `C#Cc1cnc2ccc(C3=NOC(C)(C(=O)NCc4cnn(CC(F)(F)F)c4)C3)cc2c1` (centres unmarked) [compound 772]: 2.34[a].
For `CC1(C(=O)NC(C2CC2)C2CC2)CC(c2ccc3ncc(Br)cc3c2)=NO1` (centres unmarked) [compound 773], the “log P” value was 3.57[a].
Same read-out and setting: the same measure for `C#Cc1cnc2ccc(C3=NOC(C)(C(=O)N4CCOCC4)C3)cc2c1` (centres unmarked) [compound 774]: 2.18[a]; for `CC1(C(=O)NCC2CCC2)CC(c2ccc3ncc(Br)cc3c2)=NO1` (centres unmarked) [compound 775]: 3.25[a].
For the compound `C#Cc1cnc2ccc(C3=NOC(C)(C(=O)NC4CC(F)(F)C4)C3)cc2c1` (centres unmarked) [compound 776], the “log P” value is 2.57[a].
Take `CC1(C(=O)NCc2cnn(CC(F)(F)F)c2)CC(c2ccc3ncc(Br)cc3c2)=NO1` (centres unmarked) [compound 777]: the “log P” value is 2.60[a].
`C#Cc1cnc2ccc(C3=NOC(C)(C(=O)NCC4CCC4)C3)cc2c1` (centres unmarked) [compound 778]: the “log P” value was 2.88[a].
In the case of `C#Cc1cnc2ccc(C3=NOC(C)(C(=O)NCc4cncc(C#N)c4)C3)cc2c1` (centres unmarked) [compound 779], the “log P” value is 2.10[a].
As to `CN(C)c1ncccc1CNC(=O)C1(C)CC(c2ccc3ncc(Br)cc3c2)=NO1` (centres unmarked) [compound 780], the “log P” value is 1.60[a].
In the case of `C#Cc1cnc2ccc(C3=NOC(C)(C(=O)NCc4cncc(F)c4)C3)cc2c1` (centres unmarked) [compound 781], the “log P” value is 2.13[a].
As to `CC1(C(=O)NCc2cncc(C#N)c2)CC(c2ccc3ncc(Br)cc3c2)=NO1` (centres unmarked) [compound 782], the “log P” value is 2.35[a].
The same measure, in the same setting: the same measure for `C#Cc1cnc2ccc(C3=NOC(C)(C(=O)NCc4cccnc4F)C3)cc2c1` (centres unmarked) [compound 783]: 2.23[a]; for `CC1(C(=O)NCc2cncc(F)c2)CC(c2ccc3ncc(Br)cc3c2)=NO1` (centres unmarked) [compound 784]: 2.37[a].
On the same count and under the same terms, the same measure for `C#Cc1cnc2ccc(C3=NOC(C)(C(=O)NCc4cccnc4OCC)C3)cc2c1` (centres unmarked) [compound 785]: 2.84[a].
As to `CC1(C(=O)NCc2cccnc2F)CC(c2ccc3ncc(Br)cc3c2)=NO1` (centres unmarked) [compound 786], the “log P” value was 2.51[a].
Regarding `C#Cc1cnc2ccc(C3=NOC(C)(C(=O)NCc4cnc(Cl)cn4)C3)cc2c1` (centres unmarked) [compound 787], the “log P” value is 2.43[a].
The same measure, in the same setting: the same measure for `CCOc1ncccc1CNC(=O)C1(C)CC(c2ccc3ncc(Br)cc3c2)=NO1` (centres unmarked) [compound 788]: 3.21[a]; for `C#Cc1cnc2ccc(C3=NOC(C)(C(=O)NCc4cncc(Cl)n4)C3)cc2c1` (centres unmarked) [compound 789]: 2.41[a].
Consider `CC1(C(=O)NCc2cnc(Cl)cn2)CC(c2ccc3ncc(Br)cc3c2)=NO1` (centres unmarked) [compound 790], for which the “log P” value was 2.73[a].
For the compound `C#Cc1cnc2ccc(C3=NOC(C)(C(=O)NCc4cncc(OC)n4)C3)cc2c1` (centres unmarked) [compound 791], the “log P” value was 2.25[a].
The same measure, in the same setting: the same measure for `CC1(C(=O)NCc2cncc(Cl)n2)CC(c2ccc3ncc(Br)cc3c2)=NO1` (centres unmarked) [compound 792]: 2.71[a]; for `C#Cc1cnc2ccc(C3=NOC(C)(C(=O)NCc4cc(C(C)C)ccn4)C3)cc2c1` (centres unmarked) [compound 793]: 1.84[a].
`COc1cncc(CNC(=O)C2(C)CC(c3ccc4ncc(Br)cc4c3)=NO2)n1` (centres unmarked) [compound 794]: the “log P” value was 2.53[a].
On the same count and under the same terms, the same measure for `CC1(C(=O)NCc2ccnc(C(F)(F)F)c2)CC(c2ccc3ncc(Br)cc3c2)=NO1` (centres unmarked) [compound 795]: 2.96[a]; for `C#Cc1cnc2ccc(C3=NOC(C)(C(=O)NCc4ccnc(SC(C)(C)C)c4)C3)cc2c1` (centres unmarked) [compound 796]: 3.02[a]; for `CC(C)(C)Sc1cc(CNC(=O)C2(C)CC(c3ccc4ncc(Br)cc4c3)=NO2)ccn1` (centres unmarked) [compound 797]: 3.44[a].
The same measure, in the same setting: the same measure for `C#Cc1cnc2ccc(C3=NOC(C)(C(=O)NCc4ccnc(SC)c4)C3)cc2c1` (centres unmarked) [compound 798]: 2.32[a]; for `CSc1cc(CNC(=O)C2(C)CC(c3ccc4ncc(Br)cc4c3)=NO2)ccn1` (centres unmarked) [compound 799]: 2.62[a].
The same measure, in the same setting: the same measure for `C#Cc1cnc2ccc(C3=NOC(C)(C(=O)NCc4ccnc(N(C)C)c4)C3)cc2c1` (centres unmarked) [compound 800]: 1.36[a]; for `CN(C)c1cc(CNC(=O)C2(C)CC(c3ccc4ncc(Br)cc4c3)=NO2)ccn1` (centres unmarked) [compound 801]: 1.49[a]; for `C#Cc1cnc2ccc(C3=NOC(C)(C(=O)NCc4ccnc(F)c4)C3)cc2c1` (centres unmarked) [compound 802]: 2.23[a].
`CC1(C(=O)NCc2ccnc(F)c2)CC(c2ccc3ncc(Br)cc3c2)=NO1` (centres unmarked) [compound 803]: the “log P” value was 2.51[a].
On the same count and under the same terms, the same measure for `C#Cc1cnc2ccc(C3=NOC(C)(C(=O)NCc4ccncc4F)C3)cc2c1` (centres unmarked) [compound 804]: 2.02[a]; for `C#Cc1cnc2ccc(C3=NOC(C)(C(=O)NCc4cccnc4O)C3)cc2c1` (centres unmarked) [compound 805]: 1.64[a].
The same measure, in the same setting: the same measure for `C#Cc1cnc2ccc(C3=NOC(C)(C(=O)NCc4ccc(O)nc4)C3)cc2c1` (centres unmarked) [compound 806]: 1.54[a]; for `CC1(C(=O)NCc2ccc(O)nc2)CC(c2ccc3ncc(Br)cc3c2)=NO1` (centres unmarked) [compound 807]: 1.72[a].
Turning to `C#Cc1cnc2ccc(C3=NOC(C)(C(=O)NCc4cccnc4N(C)C)C3)cc2c1` (centres unmarked) [compound 808], the “log P” value is 1.43[a].
On the same count and under the same terms, the same measure for `C#Cc1cnc2ccc(C3=NOC(C)(C(=O)NCc4ccnc(NC5CC5)c4)C3)cc2c1` (centres unmarked) [compound 809]: 1.45[a]; for `CC1(C(=O)NCc2ccncc2F)CC(c2ccc3ncc(Br)cc3c2)=NO1` (centres unmarked) [compound 811]: 2.27[a].
On the same count and under the same terms, the same measure for `C#Cc1cnc2ccc(C3=NOC(C)(C(=O)NCc4cccnc4C#N)C3)cc2c1` (centres unmarked) [compound 812]: 1.70[a].
`C#Cc1cnc2ccc(C3=NOC(C)(C(=O)NCC4CC(F)(F)C4)C3)cc2c1` (centres unmarked) [compound 813]: the “log P” value was 2.71[a].
On the same count and under the same terms, the same measure for `CC1(C(=O)NCc2cccnc2C#N)CC(c2ccc3ncc(Br)cc3c2)=NO1` (centres unmarked) [compound 814]: 1.91[a]; for `CC1(C(=O)N(Cc2cc(F)cc3c2C(C)(C)CCC3)C2CC2)CC(c2ccc3ncc(Br)cc3c2)=NO1` (centres unmarked) [compound 815]: 6.11[a].

The subject of a further data set is Septoria tritici. Nature of the data set: In vivo preventive test on Septoria tritici (leaf spot on wheat). As to conditions: 500 ppm; wheat plants sprayed 24 hours before contamination; grading 21 to 28 days after contamination vs control plants. The protocol: Wheat plants (“Scipion” variety), sown in starter cups on a 50/50 peat soil-pozzolana substrate and grown at 22° C. (12 h)/20° C. (12 h), are treated at the 1-leaf stage (10 cm height) by spraying with the active ingredient prepared as described above. Plants, used as controls, are treated with the mixture of acetone/tween/DMSO/water not containing the active material. After 24 hours, the plants are contaminated by spraying the leaves with an aqueous suspension of cryopreserved Septoria tritici spores (500 000 spores per ml). […] Grading (% of efficacy) is carried out 21 to 28 days after the contamination, in comparison with the control plants.
With `CC(O)C1(C(=O)NCC2COC(C)(C)O2)CC(c2ccc3ncc(Br)cc3c2)=NO1` (mixture of isomers) [compound 555], the “% of efficacy (protection)” value is listed as 71%.
Same read-out and setting: the same measure for `Cc1cnc(CNC(=O)C2(C(C)O)CC(c3ccc4ncc(Br)cc4c3)=NO2)cn1` (mixture of isomers) [compound 562]: 86%; for `CC1(C(=O)NC(C)(C#N)C2CC2)CC(c2ccc3ncc(Br)cc3c2)=NO1` (centres unmarked) [compound 301]: 80%.
